Data: ChEMBL document CHEMBL3864122, “Antibacterial sulfur-containing platensimycin and platencin congeners from Streptomyces platensis SB12029” (2016)

What was measured:
[1] = test system: Staphylococcus aureus; assay: Antibacterial activity against methicillin-sensitive Staphylococcus aureus ATCC 25923 measured after 18 hrs by broth dilution method; assay type: functional; settings: ATCC 25923, 18 h
[2] = test system: Micrococcus luteus; assay: Antibacterial activity against Micrococcus luteus ATCC 9431 measured after 18 hrs by broth dilution method; assay type: functional; settings: ATCC 9431, 18 h

| MIC [1] | MIC [2] | SMILES |
| --- | --- | --- |
| > 64 µg/mL | 64 µg/mL | COc1ccc(C(=O)SC)c(OC)c1NC(=O)CC[C@]1(C)C(=O)C=C[C@]23C[C@H]4C[C@H](O[C@@]4(C)C2)[C@H]31 |
| 0.56 µM | 0.28 µM | C[C@]12C[C@@]34C=CC(=O)[C@@](C)(CCC(=O)Nc5c(O)ccc(C(=O)S[C@H]6CC(=O)[C@@](C)(CCC(=O)Nc7c(O)ccc(C(=O)O)c7O)[C@@H]7[C@@H]8C[C@@H]9C[C@]67C[C@]9(C)O8)c5O)[C@@H]3[C@H](C[C@@H]1C4)O2 |
| 1.13 µM | 1.13 µM | C[C@]12C[C@@]34C=CC(=O)[C@@](C)(CCC(=O)Nc5c(O)ccc(C(=O)O)c5O)[C@@H]3[C@H](C[C@@H]1C4)O2 |
